Laboratory results published in patent US12059413B2, “Methods of inhibiting viruses using compositions targeting TSG101-ubiquitin interaction” (The Research Foundation for the State University of New York, priority 2016, dated 2024).

Columns and labels:
Tsg101 UEV domain [1] = target: T1, Tsg101 UEV domain (Homo sapiens, UniProt Q99816); assay: Tsg101 melting curves with compounds, relative fluorescence (RFU) shift; assay type: binding; conditions: at 20 uM
T1 construct: Tsg101 UEV domain (residues 2-145) was encoded in a pET-28b vector; His6-TEV site (N, cleaved yes); made in house; host or cells: E. coli Rosetta 2 (DE3) pLysS
T1 sequence (Q99816 2-145): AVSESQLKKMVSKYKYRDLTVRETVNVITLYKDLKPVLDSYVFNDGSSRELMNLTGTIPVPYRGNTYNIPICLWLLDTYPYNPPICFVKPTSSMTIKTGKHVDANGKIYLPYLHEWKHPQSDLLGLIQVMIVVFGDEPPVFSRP
Experimental: FIG. 13B. TSG101 binding of prazole compounds. Melting curves of TSG101 with various prazole compounds assayed by relative fluorescence (RFU) shift. Two control compounds, K21 and N20, had no effect at 40 μM on the Tsg101 melting curve.
FIG. 14A-F. The ubiquitin E2 variant (UEV) domain of Tsg101 was purified by attaching it to an N-terminal His tag with a Tobacco Etch Virus nuclear-inclusion-a endopeptidase (TEV) cleavage site and isolating the tagged protein through two consecutive nickel columns. The first nickel column bound the Tsg101 with the His tag. Following cleavage of the His tag, Tsg101 flowed straight through the second column, removing any impurities from the cell lysate that also bound to the column in step 1, as well as the TEV protease enzyme.
F) Dose-dependence of Tsg101 normalized melting curves for N16 (top) and F15 (bottom). At same concentration, N16 shifts the melting curve to a greater extent to the left than F15. Specifically, at 20 uM, N16 caused a 12 degree Tm shift while F15 gave rise a 5 degree Tm shift. This difference correlated with the potency observed in the cell-based assay. The plot for N16 contains two control compounds, K21 and N20, which have no effect at 40 uM on the Tsg101 melting curve.

HIV-1 Gag VLP = assay: Gag VLP production / budding, Western blot analysis; assay type: cell-based
Experimental: FIG. 15A-D. N16 inhibits HIV-1 NL4-3 and Gag VLP production. A) Effect on virus production. Virus particles from N16-treated 293T cells transfected with pNL4-3 as determined by ELISA assay. Top, The compound was added 6 hr prior to DNA transfection and tissue culture media was harvested 24 hr later. Bottom, The compound was added at the indicated concentration 24 hr after DNA transfection and tissue culture media was harvested 24 hr later. Assay values were normalized to that of the DMSO carrier control. B) Effect on virus infectivity. Infectious viral particles per ng p24 as determined by MAGI assay. C) Left, Electron microscopy of particles at cell surface at 24 hr post-N16 addition; Right, Quantitative analysis of budding morphologies. Cells expressing WT- or P7L-NL4-3 were exposed to DMSO carrier or 50 μM N16. Arrows indicate emerging ‘Early’ buds. D) Effects on Gag VLP production. Top, Western blot analysis. Cells treated at the indicated concentration were transfected with DNA encoding Gag-HA. At the end of the treatment period, tissue culture media was removed for VLP isolation. Cells were suspended in lysis buffer. Blots were probed for Gag-HA and actin. Bottom, Quantitative analysis. Ratio of VLP- or cell-associated Gag to actin normalized to the mock-treated control (0 μM N16). Number of independent trials (n) for A), B), C), and D)=3, 2, 2 and 3, respectively.
FIG. 21A-B. N16 suppresses the inhibitory effect of fusing DUb to Gag. […] Top, Western blot analysis of Gag in cushioned VLP samples; Middle, Gag and actin in cell lysates; Bottom, Quantitative analysis of VLP release efficiency normalized to the WT Gag control (Gag and Gag-DUb differed in sample size in order to yield visible signal); B) Effect of N16 on Gag and GagDUb VLP production. […] Bottom, Quantitative analysis of VLP production (left), lysate Gag (center) and VLP release efficiency (right) normalized to the mock-treated control. […]
For production of virus particles, 293T cells were transfected with pNL4-3-ΔEnv and pIIIB Env3-1 plasmids and for virus-like particles (VLP), with pCMV-Gag-HA as previously described (Watanabe et al. (2013)). For specific infectivity, media-associated p24 was determined by ELISA (Immunodiagnostics, Inc.) and equivalent amounts of p24 were used to infect HeLa-CD4+-LTR-3 gal cells for infectivity measurement by the multinuclear activation of a galactosidase indicator (MAGI) assay. […] For cell-associated Gag analysis, cell pellets were lysed with either Triton X-100 or RIPA buffer with complete mini protease inhibitor cocktail (Roche) and analyzed by Western blotting. Protein bands were visualized using an infrared-based imaging system (Odyssey, LI-COR Biotechnology) and band intensities measured using the Li-Cor Odyssey software version 2.1.15. […]

Tsg101 UEV domain [2] = target: T1, Tsg101 UEV domain; assay: NMR / LC-MS binding of compound to Tsg101 UEV domain
Experimental: N16 (20 mM solution, DMSO) was added to Tsg101 UEV domain in a 10:1 ratio (N16 excess).
For binding studies using NMR spectroscopy, the following complexes were made: Tsg101 UEV-N16, UEV-PTAP, UEV-Ub, UEV-N16-PTAP, and UEV-N16-Ub, all in Tsg101 NMR buffer: 20 mM potassium phosphate, 50 mM NaCl, pH 5.8, with UEV concentration of 200 μM.

Compound | Tm shift of Tsg101 melting curve (Tsg101 UEV domain [1]) [degree] | effectiveness in tissue culture budding assay (HIV-1 Gag VLP; compared with Tenatoprazole) | residue bound in Tsg101 UEV (NMR and fluorescence perturbances) (Tsg101 UEV domain [2]) | budding directed by WT Gag (HIV-1 Gag VLP; 50 μM N16, 293T) | Gag intracellular accumulation and VLP formation (HIV-1 Gag VLP; 293T, FIG. 15D) | budding of the Gag-DUb fusion (HIV-1 Gag VLP; N16 present, 293T) | time to complete formation of N16 UEV complex (Tsg101 UEV domain [2]; 10:1 N16 excess, chemical shift perturbations) [h]
COc1ccc2nc([S@@+]([O-])Cc3ncc(C)c(OC)c3C)[nH]c2c1 [F15, esomeprazole] | 5 | less effective than Tenatoprazole | bind to residue C73 | – | – | – | –
COc1ccc2[nH]c([S+]([O-])Cc3ncc(C)c(OC)c3C)nc2n1 (stereo not drawn) [N16, tenatoprazole] | 12 | – | bind to residue C73 | inhibited | dose-dependent reduction | not inhibited | 2
